Results from US12600726B2, “Antagonists of the muscarinic acetylcholine receptor M4” (Vanderbilt University, priority 2017, dated 2026).

Experiments:
Rat M4 = target: T1, Rat M4 (Rattus norvegicus, UniProt P08485); assay: mAChR M4 cell-based functional calcium flux assay (rat M4/Gqi5/CHO cells); settings: for Emin (rat M4): % ACh maximum at 30 μM; for IC50: decrease of the response to an EC80 concentration of acetylcholine
T1 construct: expressed in transfected cells; host or cells: CHO-K1 (ATCC), stably expressing M4 and Gqi5
T1 sequence (P08485 1-478): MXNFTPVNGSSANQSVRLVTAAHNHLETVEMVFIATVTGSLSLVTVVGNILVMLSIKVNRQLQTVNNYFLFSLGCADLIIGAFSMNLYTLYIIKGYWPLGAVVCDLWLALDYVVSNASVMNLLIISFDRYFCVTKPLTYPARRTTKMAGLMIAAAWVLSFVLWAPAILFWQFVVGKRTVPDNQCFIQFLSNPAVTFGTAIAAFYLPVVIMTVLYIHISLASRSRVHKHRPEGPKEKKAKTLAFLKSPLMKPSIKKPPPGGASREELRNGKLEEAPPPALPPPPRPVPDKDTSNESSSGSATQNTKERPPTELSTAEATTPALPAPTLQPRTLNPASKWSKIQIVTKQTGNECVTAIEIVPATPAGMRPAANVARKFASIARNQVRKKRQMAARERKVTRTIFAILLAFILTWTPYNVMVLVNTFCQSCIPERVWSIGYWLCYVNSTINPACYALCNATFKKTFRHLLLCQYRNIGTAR
Experimental: Human, rat, or mouse M4. cDNA, along with the chimeric G protein Gqi5, were transfected into Chinese hamster ovary (CHO-K1) cells purchased from the American Type Culture Collection using Lipofectamine2000. M4/Gqi5/CHO cells were grown in Ham's F-12 medium containing 10% heat-inactivated fetal bovine serum (FBS), 20 mM HEPES, 500 μg/mL G418 sulfate, and 200 μg/mL Hygromycin B.
For high throughput measurement of agonist-evoked increases in intracellular calcium, CHO-K1 cells stably expressing muscarinic receptors were plated in growth medium lacking G418 and hygromycin at 15,000 cells/20 μL/well in Greiner 384-well black-walled, tissue culture (TC)-treated, clear-bottom plates (VWR). Cells were incubated overnight at 37° C. and 5% CO2. The next day, cells were washed using an ELX 405 (BioTek) with assay buffer; the final volume was then aspirated to 20 μL. Next, 20 μL of a 2.3 μM stock of Fluo-4/acetoxymethyl ester (Invitrogen, Carlsbad, CA), prepared as a 2.3 mM stock in DMSO and mixed in a 1:1 ratio with 10% (w/v) Pluronic F-127 and diluted in assay buffer, was added to the wells and the cell plates were incubated for 50 min at 37° C. and 5% CO2. Dye was removed by washing with the ELX 405 and the final volume was aspirated to 20 μL. Compound master plates were formatted in a 10 point concentration-response curve (CRC) format (1:3 dilutions) in 100% DMSO with a starting concentration of 10 or 1 mM using a BRAVO liquid handler (Agilent). Test compound CRCs were then transferred to daughter plates (240 nL) using the Echo acoustic plate reformatter (Labcyte, Sunnyvale, CA) and then diluted into assay buffer (40 μL) to a 2× stock using a Thermo Fisher Combi (Thermo Fisher Scientific, Waltham, MA).
Calcium flux was measured using the Functional Drug Screening System (FDSS) 6000 or 7000 (Hamamatsu Corporation, Tokyo, Japan) as an increase in the fluorescent static ratio. Compounds were applied to cells (20 μL, 2×) using the automated system of the FDSS at 2 seconds into the protocol and the data were collected at 1 Hz. At 143 s, 10 μL of an EC20 concentration of the muscarinic receptor agonist acetylcholine was added (5×), followed by the addition of 12 μL of an EC80 concentration of acetylcholine at the 268 s time point (5×). Agonist activity was analyzed as a concentration-dependent increase in calcium mobilization upon compound addition. Positive allosteric modulator activity was analyzed as a concentration-dependent increase in the EC20 acetylcholine response. Antagonist activity was analyzed as a concentration-dependent decrease in the EC80 acetylcholine response; for the purposes of the tables herein, an IC50 (inhibitory concentration 50) was calculated as a concentration-dependent decrease of the response elicited by an EC80 concentration of acetylcholine. Concentration-response curves were generated using a four-parameter logistical equation in XLFit curve fitting software (IDBS, Bridgewater, NJ) for Excel (Microsoft, Redmond, WA) or Prism (GraphPad Software, Inc., San Diego, CA) or the Dotmatics software platform (Dotmatics, Bishop's Stortford, UK).
Compounds were synthesized as described above. Activity (IC50 and Emin) was determined in the mAChR M4 cell-based functional assay as described above and the data are shown in Table 2 and Table 3. The compound number corresponds to the compound numbers used in the examples and Tables 1 and 1.1.

Human M4 = target: T2, Human M4 (Homo sapiens, UniProt P08173); assay: mAChR M4 cell-based functional calcium flux assay (human M4/Gqi5/CHO cells); settings: for Emin (human M4): % ACh maximum at 30 μM; for IC50: decrease of the response to an EC80 concentration of acetylcholine
T2 construct: expressed in transfected cells; host or cells: CHO-K1 (ATCC), stably expressing M4 and Gqi5
T2 sequence (P08173 1-479): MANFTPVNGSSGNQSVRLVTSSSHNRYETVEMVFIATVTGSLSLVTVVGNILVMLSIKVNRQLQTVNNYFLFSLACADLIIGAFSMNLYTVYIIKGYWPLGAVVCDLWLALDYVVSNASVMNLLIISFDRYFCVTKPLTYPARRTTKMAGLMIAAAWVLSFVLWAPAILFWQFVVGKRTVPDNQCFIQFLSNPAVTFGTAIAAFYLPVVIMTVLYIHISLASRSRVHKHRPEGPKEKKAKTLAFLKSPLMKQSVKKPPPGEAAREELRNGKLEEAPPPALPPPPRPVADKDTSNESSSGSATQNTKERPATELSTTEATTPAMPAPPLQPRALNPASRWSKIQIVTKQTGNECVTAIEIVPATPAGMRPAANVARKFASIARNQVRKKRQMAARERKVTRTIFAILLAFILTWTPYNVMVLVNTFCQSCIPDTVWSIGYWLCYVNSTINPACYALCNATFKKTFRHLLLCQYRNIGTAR
Outline: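 CHO-K1 cells stably co-expressing M4 of the given species with chimeric Gqi5 were loaded with Fluo-4 AM and read for calcium flux. Compounds (10-point, 1:3 dilutions) were added first, followed by an acetylcholine EC20 at 143 s and an EC80 at 268 s. IC50 reflects the concentration-dependent fall in the EC80 response, fitted with a four-parameter logistic.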

SMILES	Emin (rat M4) (Rat M4)	IC50 (Rat M4)	Emin (human M4) (Human M4)	IC50 (Human M4)
CC(C)(C)CCN1CCC2(CC1)CC2CNc1ccc(-c2cc(F)cc(F)c2)nn1 (stereo not shown) [Compound 33, 6-(3,5-difluorophenyl)-N-[[6-(3,3-dimethylbutyl)-6-azaspiro[2.5]octan-2-yl]methyl]pyridazin-3-amine]	2.09%	110 nM	2.48%	40 nM
Cc1nn(C)c(C)c1-c1ccc(NCC2CC23CCN(CCC(C)(C)C)CC3)nn1 (stereo not shown) [Compound 36, N-[[6-(3,3-dimethylbutyl)-6-azaspiro[2.5]octan-2-yl]methyl]-6-(1,3,5-trimethylpyrazol-4-yl)pyridazin-3-amine]	4.52%	32.8 nM	2.61%	6.1 nM
Cn1nc(C(F)(F)F)cc1-c1ccc(NCC2CC23CCN(CCC(C)(C)C)CC3)nn1 (stereo not shown) [Compound 39, N-[[6-(3,3-dimethylbutyl)-6-azaspiro[2.5]octan-2-yl]methyl]-6-[2-methyl-5-(trifluoromethyl)pyrazol-3-yl]pyridazin-3-amine]	3.42%	58.1 nM	2.60%	13.7 nM
CC(=O)Nc1ccc(-c2ccc(NCC3CC34CCN(CCC(C)(C)C)CC4)nn2)cc1 (stereo not shown) [Compound 40, N-[4-[6-[[[6-(3,3-dimethylbutyl)-6-azaspiro[2.5]octan-2-yl]methyl]amino]pyridazin-3-yl]phenyl]acetamide]	3.40%	17.3 nM	2.97%	4.56 nM
CC(C)(C)CCN1CCC2(CC1)CC2CNc1ccc(-c2cc(F)ccc2C#N)nn1 (stereo not shown) [Compound 43, 2-[6-[[[6-(3,3-dimethylbutyl)-6-azaspiro[2.5]octan-2-yl]methyl]amino]pyridazin-3-yl]-4-fluoro-benzonitrile]	3.33%	199 nM	2.34%	23 nM
CC(C)(C)CCN1CCC2(CC1)CC2CNc1ccc(-c2ccc3ccncc3c2)nn1 (stereo not shown) [Compound 44, N-[[6-(3,3-dimethylbutyl)-6-azaspiro[2.5]octan-2-yl]methyl]-6-(7-isoquinolyl)pyridazin-3-amine]	3.41%	47.8 nM	2.73%	16 nM
CC(C)(C)CCN1CCC2(CC1)CC2CNc1ccc(-c2ccc3ncccc3c2)nn1 (stereo not shown) [Compound 45, N-[[6-(3,3-dimethylbutyl)-6-azaspiro[2.5]octan-2-yl]methyl]-6-(6-quinolyl)pyridazin-3-amine]	3.33%	53.9 nM	2.89%	9.08 nM

Further lines, results first:

Emin (rat M4) (Rat M4)	IC50 (Rat M4)	Emin (human M4) (Human M4)	IC50 (Human M4)	SMILES
3.26%	107 nM	2.43%	31.2 nM	CC(C)(C)CCN1CCC2(CC1)CC2CNc1ccc(-c2cc(F)ccc2F)nn1 (stereo not shown) [Compound 30, 6-(2,5-difluorophenyl)-N-[[6-(3,3-dimethylbutyl)-6-azaspiro[2.5]octan-2-yl]methyl]pyridazin-3-amine]
2.87%	68.8 nM	3.03%	22.1 nM	COc1ccc(F)cc1-c1ccc(NCC2CC23CCN(CCC(C)(C)C)CC3)nn1 (stereo not shown) [Compound 31, N-[[6-(3,3-dimethylbutyl)-6-azaspiro[2.5]octan-2-yl]methyl]-6-(5-fluoro-2-methoxy-phenyl)pyridazin-3-amine]
2.80%	168 nM	2.71%	74.9 nM	CC(C)(C)CCN1CCC2(CC1)CC2CNc1ccc(-c2ccc(F)c(F)c2)nn1 (stereo not shown) [Compound 32, 6-(3,4-difluorophenyl)-N-[[6-(3,3-dimethylbutyl)-6-azaspiro[2.5]octan-2-yl]methyl]pyridazin-3-amine]
2.88%	86.2 nM	2.24%	17.8 nM	CC(C)(C)CCN1CCC2(CC1)CC2CNc1ccc(-c2ccccc2)nn1 (stereo not shown) [Compound 34, N-[[6-(3,3-dimethylbutyl)-6-azaspiro[2.5]octan-2-yl]methyl]-6-phenyl-pyridazin-3-amine]
3.44%	47.8 nM	2.58%	3.15 nM	Cc1cnn(C)c1-c1ccc(NCC2CC23CCN(CCC(C)(C)C)CC3)nn1 (stereo not shown) [Compound 35, N-[[6-(3,3-dimethylbutyl)-6-azaspiro[2.5]octan-2-yl]methyl]-6-(2,4-dimethylpyrazol-3-yl)pyridazin-3-amine]
4.23%	59.3 nM	3.00%	5.29 nM	Cc1noc(C)c1-c1ccc(NCC2CC23CCN(CCC(C)(C)C)CC3)nn1 (stereo not shown) [Compound 37, N-[[6-(3,3-dimethylbutyl)-6-azaspiro[2.5]octan-2-yl]methyl]-6-(3,5-dimethylisoxazol-4-yl)pyridazin-3-amine]
4.05%	24 nM	3.30%	3.71 nM	Cn1nccc1-c1ccc(NCC2CC23CCN(CCC(C)(C)C)CC3)nn1 (stereo not shown) [Compound 38, N-[[6-(3,3-dimethylbutyl)-6-azaspiro[2.5]octan-2-yl]methyl]-6-(2-methylpyrazol-3-yl)pyridazin-3-amine]
3.33%	105 nM	2.24%	16 nM	CC(C)(C)CCN1CCC2(CC1)CC2CNc1ccc(-c2cccc(F)c2Cl)nn1 (stereo not shown) [Compound 41, 6-(2-chloro-3-fluoro-phenyl)-N-[[6-(3,3-dimethylbutyl)-6-azaspiro[2.5]octan-2-yl]methyl]pyridazin-3-amine]
2.94%	49.7 nM	2.88%	11.2 nM	Cc1ccsc1-c1ccc(NCC2CC23CCN(CCC(C)(C)C)CC3)nn1 (stereo not shown) [Compound 42, N-[[6-(3,3-dimethylbutyl)-6-azaspiro[2.5]octan-2-yl]methyl]-6-(3-methyl-2-thienyl)pyridazin-3-amine]
